This note sets out measurements from patent publication US12617768B2, “Radiolabeled cannabinoid receptor 2 ligand” (HOFFMANN-LA ROCHE INC., priority 2018, dated 2026).

The target in this experiment is T1, human CB1 receptors (Homo sapiens, UniProt P21554).
T1 construct: expressed in transfected cells; host or cells: stably transfected cells (cell line for CB1 not explicitly stated)
The experiment is described as follows: Radioligand competition binding of [^3H]CP55940, human CB1. The following applies: competition with [^3H]CP55940; cells recombinantly expressing the receptor. On the procedure:
Stably transfected cells or spleen tissue were homogenized in 15 mmol L-1 Hepes, 0.3 mmol L-1 EDTA, 1 mmol L-1 EGTA, 2 mmol L-1 MgCl2, complete EDTA-free protease inhibitor (Roche Applied Science, Rotkreuz, Switzerland), pH 7.4 using a glass potter and centrifugation at 47,800 g at 4° C. for 30 min. The pellet was then rehomogenized twice in the same buffer and centrifuged (47,800 g, 4° C., 30 min). The final pellet was then resuspended in 75 mmol L-1 Tris, 0.3 mmol L-1 EDTA, 1 mmol L-1 EGTA, 12.5 mmol L-1 MgCl2, 250 mmol L-1 sucrose, pH 7.4 at a protein concentration of 1 to 3 mg mL-1, aliquoted, frozen on dry ice and stored at −80° C.
For competition binding, membrane preparations were incubated either with 0.3 nM of [^3H]-CP55940 in the presence or absence of increasing concentrations of unlabeled (R^1═R^2═CH2CH3, R^3═CH2CH2CH2F) compound of formula (I) or with 1.5 nM compound of formula (I) ((R^1═R^2═CHTCH2T, R^3═CH2CH2CH2F)) and increasing amounts of membranes (2.5-80 μg) in the presence or absence of CP55940 (10 μM) for 60 min at 30° C. in a final volume of 0.2 mL of 50 mmol L-1 Tris-HCl, 5 mmol L-1 MgCl2, 2.5 mmol L-1 EGTA, 0.1% fatty acid-free BSA and 1% DMSO, pH 7.4, buffer, gently shaking. […] IC50 values and Hill slopes were determined by a four parameter logistic model using ActivityBase

T1 sequence (P21554 whole entry): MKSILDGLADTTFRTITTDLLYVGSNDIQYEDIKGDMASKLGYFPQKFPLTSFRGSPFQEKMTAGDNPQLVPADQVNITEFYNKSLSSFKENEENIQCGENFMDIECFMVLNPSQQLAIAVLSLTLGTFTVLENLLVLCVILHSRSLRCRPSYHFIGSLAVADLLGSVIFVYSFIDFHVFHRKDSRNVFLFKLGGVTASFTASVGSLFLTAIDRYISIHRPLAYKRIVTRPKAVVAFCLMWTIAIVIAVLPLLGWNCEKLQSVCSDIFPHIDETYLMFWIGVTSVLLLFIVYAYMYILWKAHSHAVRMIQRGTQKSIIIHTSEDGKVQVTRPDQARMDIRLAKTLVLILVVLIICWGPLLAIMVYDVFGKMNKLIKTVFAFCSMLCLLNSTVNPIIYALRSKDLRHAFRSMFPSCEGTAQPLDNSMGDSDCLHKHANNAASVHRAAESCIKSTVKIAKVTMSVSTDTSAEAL

For the molecule `CCC(CC)(NC(=O)c1ccc(N2CC(OC)C2)c(OC[C@H]2C[C@@H]2CO)n1)C(=O)OCCCF` [unlabeled compound of formula (I)], the inhibition constant (Ki) is more than 10 µM.

As usually defined, the Ki is a measure of affinity in units of concentration, obtained from inhibition or displacement.
